Here are results for two molecules from article PMC10541456, “A phase I, single‐center, open‐label study to investigate the absorption, distribution, metabolism and excretion of encorafenib following a single oral dose of 100 mg [ ^14C] encorafenib in healthy male subjects” (Pharmacology Research & Perspectives, 2023).

Series [1] can be described thus: Metabolite profiles in plasma (UPLC, radioactivity detection, MS). It is filed as in vivo, human. The settings on record: for Mean (range) Circulating Radioactivity in Plasma Based on AUC0-24: 100 mg oral [14C] encorafenib; for Mean (range) Circulating Radioactivity in Plasma Based on AUC0-24 (%): M12.8 value is sum of M12.8 and M13.2. The protocol:
To the thawed plasma samples (1.5 mL plasma/ time points) two volumes of ice‐cold acetonitrile:ethanol:acetic acid (90:10:0.1, v/v) were added, followed by vortex mixing (10 min) and sonication (10 min). After centrifugation, the supernatants (4.2 mL) were evaporated to near dryness under a gentle stream of nitrogen on a TurboVap LV (Zymark Corp.). The residues were reconstituted in 80 μL of methanol:water:acetic acid (50:50:0.1, v/v) and 45 μL were injected into the ultra‐performance liquid chromatography (UPLC) system with off‐line radioactivity detection.
Characterization and quantification of the metabolites of encorafenib in select human plasma and excreta samples were performed by the Department of DMPK (Drug Metabolism and Pharmacokinetics) at the Novartis Institutes for Biomedical Research (East Hanover, NJ, USA) using liquid chromatography (LC) coupled to radioactivity detectors and mass spectrometers (MS).
The analytical system consisted of a Waters ACQUITY UPLC system (Waters), equipped with a Phenomenex Luna PFP column (3 μm, 4.6 × 150 mm) (Phenomenex) and a guard column of the same phase, both maintained at a temperature of 30°C. The mobile phases consisted of 10 mM ammonium acetate containing 0.1% formic acid (v/v) (solvent A) and CH3CN (solvent B). The total run time was 80 min. A linear gradient elution program was used with a flow rate of 1 mL/min as described in Table 1.
The UPLC effluent was split 4:1, with […] of the total flow introduced to the mass spectrometer for mass spectral analysis and the remaining flow used for radioactivity detection.
For off‐line radioactivity detection, the eluant was collected into 96‐well Lumaplate (Packard Instrument Co) microplates using a Collect Pal fraction collector (Leap Technologies) with a collection time of 10 seconds per well. The LumaPlates were sealed after drying and counted for 10–50 min per well on a Packard Topcount microplate scintillation counter. The structural characterization of metabolites was carried out using the above UPLC profiling method coupled to a two‐channel Z‐spray (LockSprayTM) time‐of‐flight mass spectrometer (Synapt MS). Leucine enkephalin was used as the mass reference standard for exact mass measurements and was delivered via the second spray channel at a flow rate of 5 μL/minute. The mass spectrometer was operated at a resolution of ~10 000 m/ΔmFWHM with spectra being collected from 100 to 1000 amu. The ionization technique employed was positive electrospray. The sprayer voltage was kept at 3100 V and the sampling cone voltage was kept at a potential of 20 V. For the time‐of‐flight MS/MS experiments, trap energies of 25 to 45 eV and transfer energy of 15 eV were used with argon as the collision gas.
All radioactivity data were transferred to Laura software (version 4.2.2.24, Lab Logic Ltd, UK) to generate and integrate radio‐chromatograms. Radioactive peaks for quantitative analysis were manually selected from the plots. The radioactivity in the region encompassing the beginning and end of the peak was summed. All further calculations were based on radioactivity.
The percent of radioactivity (%RA) in a particular peak, Z, was calculated as follows in Equation (1): (1) %RAinZ=DPMin PeakZ/totalDPMinallintegrated peaksx100
The concentration or amount of each component was calculated as % RA (expressed as a fraction) multiplied by the total concentration of radioactivity in plasma, or the percent of dose in the excreta.

Series [2] relates to A375 (BRAF V600E) melanoma cell proliferation. More on the design: method as in data on file. The settings on record: fraction of encorafenib potency; ref data on file; cited from earlier work.
Details of series [3]: method as in data on file. The settings on record: ref data on file; cited from earlier work.

Consider `CC(O)CNc1nccc(-c2cn(C(C)C)nc2-c2cc(Cl)cc(NS(C)(=O)=O)c2F)n1` (stereo not drawn) [M44], for which, in series [1], the “Mean (range) Circulating Radioactivity in Plasma Based on AUC0-24” value is 806 (525–1250) ngEq/mL*h and the “Mean (range) Circulating Radioactivity in Plasma Based on AUC0-24 (%)” value was 5.09 (4.02–6.36) %.
`CC(C)n1cc(-c2ccnc(N)n2)c(-c2cc(Cl)cc(NS(C)(=O)=O)c2F)n1` [M42.5A]: in series [1], the “Mean (range) Circulating Radioactivity in Plasma Based on AUC0-24” value is on record as 2430 (1740–3320) ngEq/mL*h and the “Mean (range) Circulating Radioactivity in Plasma Based on AUC0-24 (%)” value is listed as 15.5 (13.4–17.4) %. Further, the “Potency relative to encorafenib against A375 cell proliferation” value in series [2] is listed as “approximately 1/30”. Besides, the “In vitro safety pharmacology result” value in series [3] was “no significant safety signal”.
